In patent US7338778B2, “Luminescent method for determining cell oxygen consumption” (Becton, Dickinson and Company, priority 1991, dated 2008):
Converted amounts (≈) assume the structure as drawn.

How the values were obtained:
Assay type in all cases: cell-based
[1] = tested on: Ps. aeruginosa (BDMS Culture collection #N111); assay: Overnight microdilution antimicrobial susceptibility test (reference MIC); details: Pseudomonas aeruginosa
E. coli (ATCC #25922) [2] = assay: Effect of antibiotics on oxygen consumption of E. coli, Ru(BiPy)3Cl2 indicator tray (Example 9); details: for susceptibility of E. coli by fluorescence counts: 4 hours; for Relative Fluorescence at 4 hrs.: 1×10^7 CFU/ml, 37° C.
Procedure: A 96 well Microtiter tray was produced essentially as in Example 1, except that tris-(2,2′ bipyridyl)-ruthenium (II) chloride hexahydrate (Aldrich Chemical Company, Milwaukee, Wis.) [Ru(BiPy)3Cl2] was substituted for Ru(DPP)3Cl2 in the silicone mixture. A second tray containing 9,10-diphenyl anthracene (DPA) was also prepared. All wells were charged with 150 ul of 1×10^7 CFU/ml E. coli (ATCC #25922) in broth. Table 3 lists the results at 0, 1, 2, 3, and 4 hours after addition of organisms.
(§1) A 0.5 McFarland suspension of E. coli (ATCC #25922) in Broth A (see Example 1) was prepared using an A-Just nephelometer. […] The trays were incubated at 37° C. for 4 hours and their fluorescence measured in a Fluoroskan II fluorometer.

E. coli (ATCC #11775) = assay: Effect of open and closed systems on oxygen measurements with cefuroxime (Example 11); details: 4 and 8 ug/ml, 5 hours, 37° C.
Procedure: A 96 well indicator microtiter tray was produced substantially as in Example 1. Duplicate wells in the tray were supplemented with the antibiotic cefuroxime in the concentration range of 0.25 to 32 ug/ml. One hundred and fifty microliters of a suspension of E. coli (ATCC #11775) was added to the wells to yield about 3×10^7 CFU/ml. One of each duplicate well was overlaid with mineral oil to inhibit diffusion of oxygen into the wells, the other duplicate was left open to the air. […] This difference is due, presumably to the time lag needed for the antibiotic to affect the organism; it is believed that during this time the oxygen is brought to an artificially low level by the ongoing metabolic activity of the organisms.

E. coli (ATCC #25922) [3] = assay: Overnight microdilution antimicrobial susceptibility test (reference MIC); details: Escherichia coli, ATCC25922; E. coli #25922, overnight microdilution
[4] = tested on: Ps. aeruginosa (BDMS Culture collection #N111); assay: Visual reading of indicator tray fluorescence without a fluorometer (Example 13); details: 1×10^7 CFU/ml, 4 hours at 37° C., UV transilluminator
Procedure: (§2) The trays were incubated for 4 hours at 37° C. and subsequently placed on the stage of an ultraviolet transilluminator (#TX-365A, Spectronics Corp., Westbury, N.Y.) which served as an excitation source.

E. coli (ATCC #25922) [5] = assay: as above; details: E. coli #25922, 1×10^7 CFU/ml, 4 hours at 37° C., UV transilluminator
Procedure: as §2

E. coli (ATCC #25922) [6] = assay: Effect of antibiotics on E. coli, Ru(DPP)3Cl2 indicator tray (Example 8); details: for susceptibility of E. coli by fluorescence counts: 4 hours; for Relative Fluorescence at 4 hrs.: 1×10^7 CFU/ml, 37° C.
Procedure: as §1
The fluorescent compound tris 4,7-diphenyl-1,10-phenanthroline ruthenium (II) chloride (Ru(DPP)3Cl2) was synthesized using the procedure of Watts and Crosby (J. Am.Chem. Soc. 93, 3184(1971)). A total of 3.6 mg of the compound was dissolved in 2.0 ml dimethyl sulfoxide (D-5879, Sigma Chemical, St. Louis, Mo.) and the resultant solution was then added slowly, with stirring, to 1300 ml silicone rubber forming solution (Water Based Emulsion #3-5024, Dow Corning, Midland, Mich.). A 35 microliter aliquot of the mixture was subsequently dispensed into each well of a 96 well, flat bottom, white microtiter tray (#011-010-7901, Dynatech, Chantilly, Va.), and the system was subsequently cured overnight in a low humidity (less than 25% RH), 60° C. incubator. After curing, the trays were washed by either soaking or by filling and emptying each well several times with each of the following reagents; a) absolute ethanol, b) 0.1 M phosphate buffer pH 7.2, c) hot distilled water (about 45° C.) and d) ambient temperature distilled water.

E. coli (ATCC #25922) [7] = assay: Effect of antibiotics on oxygen consumption of E. coli, DPA indicator tray (Example 10); details: for susceptibility of E. coli by fluorescence counts: 4 hours; for Relative Fluorescence at 4 hrs.: 1×10^7 CFU/ml, 37° C.
[8] = all concentrations (0.5 to 8 ug/ml)

Row | Compound | MIC [1] [µg/mL] | Relative Fluorescence at 4 hrs. (E. coli (ATCC #25922) [2]; antibiotic 0.5 ug/mL) | Relative Fluorescence at 4 hrs. (E. coli (ATCC #25922) [2]; antibiotic 1 ug/mL) | Relative Fluorescence at 4 hrs. (E. coli (ATCC #25922) [2]; antibiotic 2 ug/mL) | Relative Fluorescence at 4 hrs. (E. coli (ATCC #25922) [2]; antibiotic 4 ug/mL) | Relative Fluorescence at 4 hrs. (E. coli (ATCC #25922) [2]; antibiotic 8 ug/mL) | MIC (E. coli (ATCC #25922) [3]) [µg/mL] | MIC Visual (lowest concentration of antibiotic to significantly lower the fluorescent emissions) [4] [µg/mL] | MIC Visual (lowest concentration of antibiotic to significantly lower the fluorescent emissions) (E. coli (ATCC #25922) [5]) [µg/mL] | Relative Fluorescence at 4 hrs. (E. coli (ATCC #25922) [6]; antibiotic 0.5 ug/mL) | Relative Fluorescence at 4 hrs. (E. coli (ATCC #25922) [6]; antibiotic 1 ug/mL) | Relative Fluorescence at 4 hrs. (E. coli (ATCC #25922) [6]; antibiotic 2 ug/mL) | Relative Fluorescence at 4 hrs. (E. coli (ATCC #25922) [6]; antibiotic 4 ug/mL) | Relative Fluorescence at 4 hrs. (E. coli (ATCC #25922) [6]; antibiotic 8 ug/mL) | Relative Fluorescence at 4 hrs. (E. coli (ATCC #25922) [7]; antibiotic 0.5 ug/mL) | Relative Fluorescence at 4 hrs. (E. coli (ATCC #25922) [7]; antibiotic 1 ug/mL) | Relative Fluorescence at 4 hrs. (E. coli (ATCC #25922) [7]; antibiotic 2 ug/mL) | Relative Fluorescence at 4 hrs. (E. coli (ATCC #25922) [7]; antibiotic 4 ug/mL) | Relative Fluorescence at 4 hrs. (E. coli (ATCC #25922) [7]; antibiotic 8 ug/mL) | other results
1 | CO/N=C(\C(=O)N[C@@H]1C(=O)N2C(C(=O)O)=C(COC(N)=O)CS[C@H]12)c1ccco1 [Cefuroxime, cefuroxime] | > 64 | 1155 | 1539 | 1183 | 1170 | 1194 | 8 (≈ 18.9 µM) | >64 | 16 | 7902 | 7983 | 7161 | 7598 | 6469 | 183 | 197 | 195 | 160 | 161 | susceptibility of E. coli by fluorescence counts (E. coli (ATCC #25922) [2]; [8]): resistant; effect on oxygen consumption by fluorescence as percent of growth control (E. coli (ATCC #11775); closed system overlaid with mineral oil): did not show an effect on oxygen consumption; susceptibility of organism by fluorescence as percent of growth control (E. coli (ATCC #11775); wells with no mineral oil (open to air)): sensitive; susceptibility of E. coli by fluorescence counts (E. coli (ATCC #25922) [6]; [8]): resistant; susceptibility of E. coli by fluorescence counts (E. coli (ATCC #25922) [7]; [8]): resistant
2 | CO[C@@]1(NC(=O)Cc2cccs2)C(=O)N2C(C(=O)O)=C(COC(N)=O)CS[C@@H]21 [Cefoxitin, cefoxitin] | > 64 | 1171 | 1491 | 1338 | 832 | 559 | 4 (≈ 9.36 µM) | >64 | 8 | 8181 | 8270 | 7120 | 3692 | 2974 | 192 | 173 | 164 | 101 | 95 | susceptibility of E. coli by fluorescence counts (E. coli (ATCC #25922) [2]; 0.5, 1, and 2 ug/ml): resistant; susceptibility of E. coli by fluorescence counts (E. coli (ATCC #25922) [2]; 4 and 8 ug/ml): sensitive; susceptibility of E. coli by fluorescence counts (E. coli (ATCC #25922) [6]; 0.5, 1, and 2 ug/ml): resistant; susceptibility of E. coli by fluorescence counts (E. coli (ATCC #25922) [6]; 4 and 8 ug/ml): sensitive; susceptibility of E. coli by fluorescence counts (E. coli (ATCC #25922) [7]; 0.5, 1, 2 ug/ml): resistant; susceptibility of E. coli by fluorescence counts (E. coli (ATCC #25922) [7]; 4 and 8 ug/ml): sensitive
